Values belong to the compound of their own block, whether it stands above or below them.
Columns and labels:
Gcn5 [1] = target: T1, Gcn5 (Homo sapiens, UniProt Q92830); assay: Competitive substrate profiling: Gcn5 labeling by probe 2 vs acyl-CoAs; type: binding; details: 2 (10 μM), acyl-CoAs (1000 μM)
Gcn5 [2] = target: T1, Gcn5; assay: LC–MS/MS verification of Gcn5 acyltransferase activity; type: biochemical; details: LC–MS/MS analysis, Supplementary Figure S10
pCAF [3] = target: T2, pCAF (Homo sapiens, UniProt Q92831); details: excess competitor (100 μM), probe 2 1 μM
Mof = target: T3, Mof (Homo sapiens, UniProt Q9H7Z6); assay: Competition of Mof labeling by probe 3; type: binding; details: excess competitor (100 μM), probe 3 1 μM
T3 sequence (Q9H7Z6 147-449): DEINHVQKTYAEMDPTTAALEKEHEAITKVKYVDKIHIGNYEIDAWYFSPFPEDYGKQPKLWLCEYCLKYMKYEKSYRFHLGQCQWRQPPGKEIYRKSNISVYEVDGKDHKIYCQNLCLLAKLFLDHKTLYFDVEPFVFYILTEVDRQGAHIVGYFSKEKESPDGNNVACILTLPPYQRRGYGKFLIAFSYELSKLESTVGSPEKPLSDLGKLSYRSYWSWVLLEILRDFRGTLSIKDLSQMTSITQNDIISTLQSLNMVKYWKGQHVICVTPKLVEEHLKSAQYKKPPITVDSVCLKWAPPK

pCAF [4] = details: read-out: literature IC50; cited from earlier work
human pCAF = details: cited from earlier work
pCAF [5] = target: T2, pCAF; assay: Labeling of pCAF in HEK-293 overexpression extracts; type: binding
pCAF [6] = target: T2, pCAF; assay: Detection of recombinant pCAF spiked into HeLa cell proteome; type: binding
pCAF [7] = target: T2, pCAF; assay: Photoaffinity/click fluorescent labeling of recombinant KAT, SDS-PAGE; type: binding; details: for Fluorescent detection of pCAF at high probe concentration: 1 μM probe; for Labeling of pCAF in KAT cocktail: probe 1 μM, mixture of p300, pCAF, Mof
Mof (MYST1) = target: T4, Mof (MYST1) (Homo sapiens, UniProt Q9H7Z6); assay: as above; type: binding; details: for Labeling of Mof in KAT cocktail: probe 1 μM, mixture of p300, pCAF
T4 sequence (Q9H7Z6 147-449): T3 sequence (Q9H7Z6 147-449)

p300 = target: T5, p300 (Homo sapiens, UniProt Q09472); assay: as above; type: binding; details: probe 1 μM; mixture of p300, pCAF, Mof
T5 sequence (Q09472 1284-1673): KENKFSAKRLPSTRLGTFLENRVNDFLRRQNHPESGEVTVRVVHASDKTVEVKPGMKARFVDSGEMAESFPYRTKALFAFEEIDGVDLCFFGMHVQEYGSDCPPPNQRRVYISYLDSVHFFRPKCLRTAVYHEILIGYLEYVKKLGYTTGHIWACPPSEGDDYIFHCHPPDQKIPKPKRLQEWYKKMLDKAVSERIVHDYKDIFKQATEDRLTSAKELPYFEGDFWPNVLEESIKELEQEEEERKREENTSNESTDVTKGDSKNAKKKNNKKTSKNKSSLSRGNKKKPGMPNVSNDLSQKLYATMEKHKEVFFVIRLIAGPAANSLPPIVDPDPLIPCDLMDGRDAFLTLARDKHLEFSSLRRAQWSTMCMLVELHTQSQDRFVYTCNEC

[8] = probe 1–10 μM, 365 nm, click with fluorescent azide

Compound: CC(=O)SCCNC(=O)CCNC(=O)[C@H](O)C(C)(C)COP(=O)(O)OP(=O)(O)OC[C@H]1O[C@@H](n2cnc3c(N)ncnc32)[C@H](O)[C@@H]1OP(=O)(O)O [acetyl-CoA]
- Competition with 2 for active site occupancy of Gcn5 (Gcn5 [1]): efficiently competed labeling

Compound: CCCC(=O)SCCNC(=O)CCNC(=O)[C@H](O)C(C)(C)COP(=O)(O)OP(=O)(O)OC[C@H]1O[C@@H](n2cnc3c(N)ncnc32)[C@H](O)[C@@H]1OP(=O)(O)O [butyryl-CoA]
- Competition with 2 for active site occupancy of Gcn5 (Gcn5 [1]): partial antagonist
- Use as substrate by Gcn5 (Gcn5 [2]): utilized

Compound: CC(C)(COP(=O)(O)OP(=O)(O)OC[C@H]1O[C@@H](n2cnc3c(N)ncnc32)[C@H](O)[C@@H]1OP(=O)(O)O)[C@@H](O)C(=O)NCCC(=O)NCCSC(=O)CC(=O)O [malonyl-CoA]
- Use as substrate by pCAF (human pCAF): not utilized as a substrate

Compound: H3K14-CoA-BPyne [compound 2]
- Lower limit of pCAF detection (pCAF [6]; 2 (1 μM), HeLa proteome (7 μg), gel-based): 2.5 pmols
- Detection of pCAF spiked into HeLa cell proteomes (pCAF [6]; pCAF 7 pmols): capable of detecting
- Relative labeling of pCAF at low probe concentration (pCAF [7]; 0.1 μM probe, clickable 2 compared with fluorescent probe 7): visibly greater labeling
- Fluorescent detection of pCAF at high probe concentration (pCAF [7]): facilitate fluorescent detection
- Fraction of pCAF covalently labeled (cross-linking yield) (pCAF [7]; 60 min irradiation at 365 nm on ice, gel densitometry): 33–40%
- Labeling of pCAF in KAT cocktail (pCAF [7]): clear preference for specific labeling
- Fluorescent labeling of purified recombinant pCAF (pCAF [7]; [8]): reacted effectively
- Labeling of Mof in KAT cocktail (Mof (MYST1)): weaker, but detectable, labeling
- Labeling of pCAF in HEK-293 overexpression extracts (pCAF [5]; fluorescence gel): Weak but detectable labeling

Compound: H4K16-CoA-BPyne [compound 3]
- Labeling of pCAF in KAT cocktail (pCAF [7]): fainter labeling
- Labeling of p300 in KAT cocktail (p300): fainter labeling
- Labeling of Mof in KAT cocktail (Mof (MYST1)): most strongly labeled
- Fluorescent labeling of purified recombinant Mof (Mof (MYST1); [8]): reacted effectively

Now from value to compound:

- Competition of interaction of pCAF with 2 (pCAF [3]): no similar effect
- Competition of Mof-3 interaction (Mof): competed
Compound: CC(=O)N[C@@H](CCCCNC(=O)CSCCNC(=O)CCNC(=O)[C@H](O)C(C)(C)COP(=O)(O)OP(=O)(O)OC[C@H]1O[C@@H](n2cnc3c(N)ncnc32)[C@H](O)[C@@H]1OP(=O)(O)O)C(N)=O [compound 4, Lys-CoA]

- Competition with 2 for active site occupancy of Gcn5 (Gcn5 [1]): did not impede labeling
Compound: CC=CC(=O)SCCNC(=O)CCNC(=O)[C@H](O)C(C)(C)COP(=O)(O)OP(=O)(O)OC[C@H]1O[C@@H](n2cnc3c(N)ncnc32)[C@H](O)[C@@H]1OP(=O)(O)O [crotonyl-CoA]

- Competition with 2 for active site occupancy of Gcn5 (Gcn5 [1]): antagonized labeling
- Use as substrate by Gcn5 (Gcn5 [2]): utilized
Compound: CCC(=O)SCCNC(=O)CCNC(=O)[C@H](O)C(C)(C)COP(=O)(O)OP(=O)(O)OC[C@H]1O[C@@H](n2cnc3c(N)ncnc32)[C@H](O)[C@@H]1OP(=O)(O)O [propionyl-CoA]

- Competition of pCAF labeling by 2 in HEK-293 overexpression extracts (pCAF [5]; competitor): sensitive to competition
Compound: H3K14-CoA [compound 5, reference compound]

- Fluorescent detection of pCAF at high probe concentration (pCAF [7]): facilitate fluorescent detection
Compound: TAMRA-H3K14-CoA [compound 7]
